These results are taken from patent US20080253960A1, “Lipoprotein-Based Nanoplatforms” (The Trustees of the University of Pennsylvania Center for …, priority 2004, published 2008).

For test [1], the system named is HepG2 tumor cells. In words: confocal microscopy of LDLR-specific uptake of r-SiPcBOA-LDL. In kind it is cell-based, human. Conditions: same amount of dye alone as in r-SiPcBOA-LDL.
Experimental: Confocal Microscopy Studies: For confocal microscopy studies, HepG2 cells were grown in 4-well Lab-Tek chamber slides (Naperville, Ill.) at a density of 40,000 cells/well. Experiments were started, after two quick washes with pre-incubation medium (medium with 0.8% (w/v) BSA instead of FBS), by the addition of pre-incubation medium containing the indicated amounts of r-SiPcBOA-LDL/AcLDL and/or unlabeled LDL. After a 4 h incubation at 37° C., the cells were washed three times with ice-cold PBS and fixed for 15 minutes with 3% formaldehyde in PBS at room temperature. Then the chamber slides were mounted and sealed for confocal microscopy analysis. Confocal microscopy was performed with a Leica TCS SPII laser scanning confocal microscope (Heidelberg, Germany). Filter settings were 633 nm for excitation and 638-800 nm for emission. Confocal Microscopy Studies of the LDLR-Specific Uptake: To visualize LDLR-mediated internalization of r-SiPcBOA-LDL, we performed laser scanning confocal microscopy studies on HepG2 tumor cells. […] To determine the specificity of this r-SiPcBOA-LDL toward LDLR, three sets of control experiments were performed.
Test [2] relates to HepG2 tumor cells. Nature of the test: laser scanning confocal microscopy of r-(Pyro-CE)-LDL uptake. The test is classed as cell-based, human. Particulars: 20 μg/mL r-(Pyro-CE)-LDL, or same amount of Pyro-CE without reconstitution into LDL. Here is the method: To visualize LDLR-mediated internalization of these NIRF/PDT agents into tumor cells, we performed laser scanning confocal microscopy studies on r-(Pyro-CE)-LDL in HepG2 tumor cells. Four sets of experiments were performed on a Leica TCS SPII laser scanning confocal microscope (Heidelberg, Germany). […] In a control experiment, HepG2 cells were incubated with native LDL but without the photosensitizer at 37° C. for 3 h to determine any possible background fluorescence. […] To determine the specificity of this LDL based photosensitizer toward LDL receptors, HepG2 cells were incubated with either a 25-fold excess of unlabeled LDL in addition to the 20 μg/mL r-(Pyro-CE)-LDL or with the same amount of Pyro-CE but without reconstitution of this agent into LDL.

For the substance “tetra-t-butyl silicon phthalocyanine bisoleate [(tBu)4SiPcBOA]”, in the test on HepG2 tumor cells [1], the “fluorescence signal (confocal)” value was “did not lead to any observable fluorescence”. Turning to “pyropheophorbide cholesterol oleate [Pyro-CE]”, the “fluorescence signal (confocal)” value in the test on HepG2 tumor cells [2] is given as “No fluorescence”.
